PubChem BioAssay (NCI)
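Exposure lasted 48 hours, with cells grown in 96-well plates and compounds tested at five concentrations. GI50: concentration for 50% inhibition of growth. TGI marks complete inhibition of growth.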

What was measured:
Experiment in all cases: NCI anticancer screen, dose series, 48 h
A549 NSCLC = system: A549 NSCLC
HOP-62 NSCLC = system: HOP-62 NSCLC
SW-620 colon = system: SW-620 colon
MDA-MB-231 breast = system: MDA-MB-231 breast
M14 melanoma = system: M14 melanoma
HS 578T breast = system: HS 578T breast
HCT-116 colon = system: HCT-116 colon
NCI-H522 lung = system: NCI-H522 lung
TK-10 renal = system: TK-10 renal
SR leukemia = system: SR leukemia
786-0 renal = system: 786-0 renal
T-47D breast = system: T-47D breast
NCI-H23 lung = system: NCI-H23 lung
MOLT-4 leukemia = system: MOLT-4 leukemia
LOX IMVI melanoma = system: LOX IMVI melanoma
HT29 colon = system: HT29 colon
SN12C renal = system: SN12C renal
NCI-H460 lung = system: NCI-H460 lung
MDA-MB-435 = system: MDA-MB-435
SK-MEL-28 melanoma = system: SK-MEL-28 melanoma
SF-295 CNS = system: SF-295 CNS
OVCAR-3 ovarian = system: OVCAR-3 ovarian
CAKI-1 renal = system: CAKI-1 renal
SK-OV-3 ovarian = system: SK-OV-3 ovarian
SNB-19 CNS = system: SNB-19 CNS
NCI-H226 lung = system: NCI-H226 lung
UACC-257 melanoma = system: UACC-257 melanoma
UACC-62 melanoma = system: UACC-62 melanoma
DU-145 prostate = system: DU-145 prostate
HOP-92 NSCLC = system: HOP-92 NSCLC
COLO 205 colon = system: COLO 205 colon
HCC-2998 colon = system: HCC-2998 colon
NCI/ADR-RES ovarian = system: NCI/ADR-RES ovarian
MCF7 breast = system: MCF7 breast
OVCAR-5 ovarian = system: OVCAR-5 ovarian
SF-539 CNS = system: SF-539 CNS
OVCAR-8 ovarian = system: OVCAR-8 ovarian
SK-MEL-2 melanoma = system: SK-MEL-2 melanoma
KM12 colon = system: KM12 colon
IGROV1 ovarian = system: IGROV1 ovarian
RPMI-8226 leukemia = system: RPMI-8226 leukemia
EKVX NSCLC = system: EKVX NSCLC
UO-31 renal = system: UO-31 renal
SF-268 CNS = system: SF-268 CNS
K-562 leukemia = system: K-562 leukemia
HCT-15 colon = system: HCT-15 colon
OVCAR-4 ovarian = system: OVCAR-4 ovarian
SNB-75 CNS = system: SNB-75 CNS
U251 CNS = system: U251 CNS
CCRF-CEM leukemia = system: CCRF-CEM leukemia
A498 renal = system: A498 renal
SK-MEL-5 melanoma = system: SK-MEL-5 melanoma
PC-3 prostate = system: PC-3 prostate
ACHN renal = system: ACHN renal
BT-549 breast = system: BT-549 breast
HL-60(TB) leukemia = system: HL-60(TB) leukemia

Structure (SMILES): Cc1ccc(NC2=C(Sc3ccc(Cl)cc3)C(=O)N(Cc3ccccc3)C2=O)cc1Cl
- GI50 (A549 NSCLC): 3.38 µM
- TGI (A549 NSCLC): 15.9 µM
- GI50 (HOP-62 NSCLC): 3.14 µM
- TGI (HOP-62 NSCLC): 10.4 µM
- GI50 (SW-620 colon): 6.01 µM
- TGI (SW-620 colon): 36.2 µM
- GI50 (MDA-MB-231 breast): 3.84 µM
- TGI (MDA-MB-231 breast): 14.7 µM
- GI50 (M14 melanoma): 3.88 µM
- TGI (M14 melanoma): 17.5 µM
- GI50 (HS 578T breast): 3.37 µM
- TGI (HS 578T breast): 18.7 µM
- GI50 (HCT-116 colon): 3.6 µM
- TGI (HCT-116 colon): 15 µM
- GI50 (NCI-H522 lung): 3.62 µM
- TGI (NCI-H522 lung): 14.9 µM
- GI50 (TK-10 renal): 11.7 µM
- TGI (TK-10 renal): 68.3 µM
- GI50 (SR leukemia): 2.86 µM
- TGI (SR leukemia): 8.12 µM
- GI50 (786-0 renal): 10.3 µM
- TGI (786-0 renal): 22.4 µM
- GI50 (T-47D breast): 5.32 µM
- TGI (T-47D breast): 66.4 µM
- GI50 (NCI-H23 lung): 13.3 µM
- TGI (NCI-H23 lung): 32.8 µM
- GI50 (MOLT-4 leukemia): 10.5 µM
- TGI (MOLT-4 leukemia): 26 µM
- GI50 (LOX IMVI melanoma): 4.84 µM
- TGI (LOX IMVI melanoma): 17.1 µM
- GI50 (HT29 colon): 10.4 µM
- TGI (HT29 colon): > 100 µM
- GI50 (SN12C renal): 12.3 µM
- TGI (SN12C renal): 29 µM
- GI50 (NCI-H460 lung): 5.75 µM
- TGI (NCI-H460 lung): 39.8 µM
- GI50 (MDA-MB-435): 22 µM
- TGI (MDA-MB-435): > 100 µM
- GI50 (SK-MEL-28 melanoma): 28.7 µM
- TGI (SK-MEL-28 melanoma): > 100 µM
- GI50 (SF-295 CNS): 5.86 µM
- TGI (SF-295 CNS): > 100 µM
- GI50 (OVCAR-3 ovarian): 2.09 µM
- TGI (OVCAR-3 ovarian): 5.31 µM
- GI50 (CAKI-1 renal): 3.44 µM
- TGI (CAKI-1 renal): 15.9 µM
- GI50 (SK-OV-3 ovarian): 18.2 µM
- TGI (SK-OV-3 ovarian): 45.7 µM
- GI50 (SNB-19 CNS): 6.03 µM
- TGI (SNB-19 CNS): 28.9 µM
- GI50 (NCI-H226 lung): 4.23 µM
- TGI (NCI-H226 lung): 19.9 µM
- GI50 (UACC-257 melanoma): 7.37 µM
- TGI (UACC-257 melanoma): 30.3 µM
- GI50 (UACC-62 melanoma): 13.5 µM
- TGI (UACC-62 melanoma): 30.5 µM
- GI50 (DU-145 prostate): 3.98 µM
- TGI (DU-145 prostate): 24.6 µM
- GI50 (HOP-92 NSCLC): 4.59 µM
- TGI (HOP-92 NSCLC): 17 µM
- GI50 (COLO 205 colon): 31.9 µM
- TGI (COLO 205 colon): > 100 µM
- GI50 (HCC-2998 colon): 19.6 µM
- TGI (HCC-2998 colon): > 100 µM
- GI50 (NCI/ADR-RES ovarian): 10.4 µM
- TGI (NCI/ADR-RES ovarian): 29.7 µM
- GI50 (MCF7 breast): 4.37 µM
- TGI (MCF7 breast): > 100 µM
- GI50 (OVCAR-5 ovarian): 10.5 µM
- TGI (OVCAR-5 ovarian): 25.1 µM
- GI50 (SF-539 CNS): 3.45 µM
- TGI (SF-539 CNS): 16.9 µM
- GI50 (OVCAR-8 ovarian): 3.98 µM
- TGI (OVCAR-8 ovarian): 34.8 µM
- GI50 (SK-MEL-2 melanoma): 13.2 µM
- TGI (SK-MEL-2 melanoma): 33.3 µM
- GI50 (KM12 colon): 31.1 µM
- TGI (KM12 colon): > 100 µM
- GI50 (IGROV1 ovarian): 3.98 µM
- TGI (IGROV1 ovarian): 15.3 µM
- GI50 (RPMI-8226 leukemia): 12.7 µM
- TGI (RPMI-8226 leukemia): 40.8 µM
- GI50 (EKVX NSCLC): 26.7 µM
- TGI (EKVX NSCLC): > 100 µM
- GI50 (UO-31 renal): 8.73 µM
- TGI (UO-31 renal): 22.1 µM
- GI50 (SF-268 CNS): 6.26 µM
- TGI (SF-268 CNS): 93.7 µM
- GI50 (K-562 leukemia): 3.66 µM
- TGI (K-562 leukemia): 19.7 µM
- GI50 (HCT-15 colon): 10.6 µM
- TGI (HCT-15 colon): > 100 µM
- GI50 (OVCAR-4 ovarian): 4.82 µM
- TGI (OVCAR-4 ovarian): 18 µM
- GI50 (SNB-75 CNS): 3.92 µM
- TGI (SNB-75 CNS): 19.4 µM
- GI50 (U251 CNS): 3.24 µM
- TGI (U251 CNS): 14 µM
- GI50 (CCRF-CEM leukemia): 11.1 µM
- TGI (CCRF-CEM leukemia): 23.1 µM
- GI50 (A498 renal): 4.8 µM
- TGI (A498 renal): 17.1 µM
- GI50 (SK-MEL-5 melanoma): 5.84 µM
- TGI (SK-MEL-5 melanoma): 20.3 µM
- GI50 (PC-3 prostate): 5.47 µM
- TGI (PC-3 prostate): 19.7 µM
- GI50 (ACHN renal): 4.91 µM
- TGI (ACHN renal): 17.1 µM
- GI50 (BT-549 breast): 10.4 µM
- TGI (BT-549 breast): 24 µM
- GI50 (HL-60(TB) leukemia): 11.9 µM
- TGI (HL-60(TB) leukemia): 27.6 µM
